Data published in the supplement of paper PMC10307832.

What was measured:
Test in all cases: relative viability (nuclei count vs DMSO), 5 days (fraction); higher = more cells survive
[1] = compound: C1=CC2=C(C=C(C(=C2N=C1)O)N=NC3=CC4=C(C=C3)C=C(C=C4)S(=O)(=O)O)S(=O)(=O)O + O=C(CCCCCCC(=O)Nc1ccccc1)NO [Vorinostat] (partner 1 µM)
Summary of the method: (§1)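 After 5 days of treatment, lung cancer cells in 1536-well plates were fixed and stained in a single step (final 0.05% Triton X-100, 1% formaldehyde, 1 ug/ml Hoechst) and their nuclei counted on 4× images. Treatment had been applied by pin tool the day after seeding as one drug alone or as a fixed anchor-drug dose with five library-drug doses (not always all listed) in √10 steps. Relative viability is the nuclei count of treated wells divided by that of vehicle wells, and values are medians of duplicate plates.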

AT-7519 + Decitabine = compound: O=C(NC1CCNCC1)c1n[nH]cc1NC(=O)c1c(Cl)cccc1Cl [AT-7519] + Nc1ncn([C@H]2C[C@H](O)[C@@H](CO)O2)c(=O)n1 [Decitabine] (partner 2 µM)
Summary of the method: as §1

AT-7519 + Vorinostat = compound: O=C(NC1CCNCC1)c1n[nH]cc1NC(=O)c1c(Cl)cccc1Cl [AT-7519] + O=C(CCCCCCC(=O)Nc1ccccc1)NO [Vorinostat] (partner 1 µM)
Summary of the method: as §1

AT-7519 + Dasatinib = compound: O=C(NC1CCNCC1)c1n[nH]cc1NC(=O)c1c(Cl)cccc1Cl [AT-7519] + Cc1nc(Nc2ncc(C(=O)Nc3c(C)cccc3Cl)s2)cc(N2CCN(CCO)CC2)n1 [Dasatinib] (partner 0.075 µM)
Summary of the method: as §1

Cell Line	relative viability ([1]; first compound 0.253 µM)	relative viability ([1]; first compound 8 µM)	relative viability (AT-7519 + Decitabine; first compound 0.01 µM)	relative viability (AT-7519 + Decitabine; first compound 0.3162 µM)	relative viability (AT-7519 + Decitabine; first compound 1 µM)	relative viability (AT-7519 + Vorinostat; first compound 0.01 µM)	relative viability (AT-7519 + Vorinostat; first compound 0.3162 µM)	relative viability (AT-7519 + Vorinostat; first compound 1 µM)	relative viability ([1]; first compound 0.08 µM)	relative viability ([1]; first compound 0.8 µM)	relative viability ([1]; first compound 2.53 µM)	relative viability (AT-7519 + Dasatinib; first compound 0.01 µM)	relative viability (AT-7519 + Dasatinib; first compound 0.03162 µM)	relative viability (AT-7519 + Dasatinib; first compound 0.3162 µM)	relative viability (AT-7519 + Dasatinib; first compound 1 µM)	relative viability (AT-7519 + Decitabine; first compound 0.03162 µM)	relative viability (AT-7519 + Vorinostat; first compound 0.03162 µM)
NCI-H1648	0.825	0.479	0.427	0.438	0.445	0.479	0.29	0.3	–	–	–	–	–	–	–	–	–
SK-MES-1	1.12	1.17	0.349	0.361	0.35	1.2	1.05	0.934	1.16	0.985	1.06	0.336	0.31	0.405	0.217	0.348	1.1
HCC-366	0.463	0.328	0.324	0.336	0.215	0.254	0.278	0.241	0.442	0.392	0.338	0.729	0.571	0.435	0.308	0.31	0.325
201T	1.04	0.942	0.915	0.831	0.862	0.975	1.01	1.12	0.997	0.961	1.08	0.586	0.528	0.609	0.662	0.853	0.952
HCC-827	0.813	0.785	0.337	0.355	0.3	0.928	0.958	1.02	0.926	0.826	0.876	0.299	0.298	0.207	0.249	0.347	0.827
NCI-H647	0.607	0.437	0.379	0.416	0.237	0.568	0.562	0.244	0.646	0.563	0.639	0.184	0.23	0.195	0.131	0.37	0.369
NCI-H2023	0.581	0.633	0.201	0.209	0.125	0.759	0.46	0.269	0.844	0.621	0.641	0.636	0.548	0.485	0.231	0.234	0.503
NCI-H520	0.662	0.753	0.547	0.507	0.395	0.712	0.659	0.429	0.66	0.761	0.681	0.244	0.241	0.174	0.166	0.492	0.793
RERF-LC-KJ	0.811	0.603	0.738	0.452	0.229	0.776	0.631	0.459	0.809	0.662	0.695	0.903	0.847	0.611	0.195	0.701	0.666
A-427	0.821	0.924	0.539	0.604	0.53	0.894	0.927	0.768	0.894	0.796	0.861	0.702	0.675	0.707	0.391	0.508	0.863
NCI-H441	0.684	0.837	0.253	0.26	0.152	0.838	0.796	0.693	0.903	0.845	0.805	0.574	0.654	0.421	0.324	0.213	0.834
NCI-H1792	–	–	0.405	0.495	0.54	–	–	–	–	–	–	–	–	0.845	0.654	0.488	–
SK-LU-1	0.725	0.697	0.602	0.569	0.501	0.805	0.693	0.544	0.766	0.753	0.719	0.171	0.155	0.157	0.163	0.653	0.725
PC-3 [JPC-3]	0.819	0.709	0.802	0.726	0.756	0.667	0.884	1.17	0.648	0.751	0.843	0.841	0.99	0.915	1.04	0.815	0.773
HCC-44	1.08	0.995	0.928	0.978	1.04	1.16	1.11	1.08	1.22	1.08	1.11	–	–	–	–	0.95	1.08
NCI-H2228	0.518	0.589	–	–	–	0.406	0.572	0.517	0.966	0.468	0.652	0.407	0.464	0.516	0.352	–	0.671
NCI-H1563	–	–	–	–	–	–	–	–	–	–	–	0.467	0.418	0.435	0.434	–	–
A549	–	–	0.233	0.28	0.251	–	–	–	–	–	–	–	–	–	–	0.22	–
NCI-H1623	–	–	–	–	–	–	–	–	–	–	–	0.58	0.646	0.63	0.604	–	–
IA-LM	0.95	0.935	–	–	–	0.607	1.01	0.723	1.09	0.97	1.04	–	–	–	–	–	0.501
CAL-12T	0.571	0.725	–	–	–	0.777	0.543	0.108	0.916	0.668	0.752	0.532	0.404	0.214	0.0899	–	0.653
